Patent publication US20260262647A1, “Synergistic Compositions Containing Guanidine” (Thor GmbH, priority 2023, published 2026)

Tests used:
Format in all cases: cell-based
yeast mixture [1] = experiment: Laundry detergent inoculated once with yeast mixture, semiquantitative growth evaluation; set-up: key: 0: No growth; Minimal growth, 1 to 10 colonies visible over the entire streak; 2: Light growth, maximum 100 colonies; Moderate growth, maximum 300 to 400 colonies; Uniform growth, >400 colonies, single colonies still clearly recognizable; 5: Heavy growth, too many colonies to count, but no growth over the entire streak; 6: Full growth, barely any single colonies still apparent, growth over the entire streak; details: Example 37, laundry detergent, +100 ppm BIT
Excerpt: (§1) In examples 35 to 38 below, synergistic interaction between guanidine and antimicrobial substances with respect to microbial infestation was studied using an emulsion paint and a laundry detergent or cleaning composition by adding particular amounts of guanidine salts and isothiazolinones and examining their stability against microbial infestation: […] The laundry detergent was a heavy-duty laundry detergent without preservatives (pH 8.1), and the cleaning composition was an all-purpose detergent without preservatives (pH 7.6), each likewise made in the laboratory, without addition of the otherwise usual conventional preservatives. To each paint was added—individually and in combination—particular concentrations of guanidinium hydrochloride, benzisothiazolinone (BIT), and a mixture of chloromethylisothiazolinone (CIT) and methylisothiazolinone (MIT). The laundry detergent and the cleaning composition were admixed with particular concentrations of guanidinium hydrochloride and benzisothiazolinone (BIT). The resultant batches of the paint thus prepared were inoculated with a mixture of different bacteria species (bacteria mixture B); the batches of the laundry detergent and cleaning compositions thus prepared were inoculated with a yeast mixture. • Pichia manshurica DSM 12249 • Rhodotorula mucilaginosa DSM 12248 • Candida boidinii DSM 13622 • Candida albicans DSM 1386 […] Further steps for establishment of a cell count of the inoculum suspension of 10^8/ml were effected analogously to the production of the bacteria suspension. […] The streaked agar plates were then incubated at 30° C. for 48 hours (bacteria) or at 25° C. for 72 hours (yeasts). After incubation, the bacterial or yeast colonies that have grown on the agar plates were visually evaluated and quantified according to the following scheme: [table]

bacteria mixture B = experiment: Emulsion paint inoculated once with bacteria mixture B, semiquantitative growth evaluation; set-up: key: 0: No growth; Minimal growth, 1 to 10 colonies visible over the entire streak; 2: Light growth, maximum 100 colonies; Moderate growth, maximum 300 to 400 colonies; Uniform growth, >400 colonies, single colonies still clearly recognizable; 5: Heavy growth, too many colonies to count, but no growth over the entire streak; 6: Full growth, barely any single colonies still apparent, growth over the entire streak; details: Example 35, emulsion paint, +500 ppm BIT
Excerpt: In examples 35 to 38 below, synergistic interaction between guanidine and antimicrobial substances with respect to microbial infestation was studied using an emulsion paint and a laundry detergent or cleaning composition by adding particular amounts of guanidine salts and isothiazolinones and examining their stability against microbial infestation: […] The laundry detergent was a heavy-duty laundry detergent without preservatives (pH 8.1), and the cleaning composition was an all-purpose detergent without preservatives (pH 7.6), each likewise made in the laboratory, without addition of the otherwise usual conventional preservatives. To each paint was added—individually and in combination—particular concentrations of guanidinium hydrochloride, benzisothiazolinone (BIT), and a mixture of chloromethylisothiazolinone (CIT) and methylisothiazolinone (MIT). The laundry detergent and the cleaning composition were admixed with particular concentrations of guanidinium hydrochloride and benzisothiazolinone (BIT). The resultant batches of the paint thus prepared were inoculated with a mixture of different bacteria species (bacteria mixture B); the batches of the laundry detergent and cleaning compositions thus prepared were inoculated with a yeast mixture. • Pseudomonas spp. (Pseudomonas oleovorans group) DSM 33933 • Pseudomonas aeruginosa DSM 33935 • Pseudomonas oleovorans DSM 33936 • Pseudomonas spec. DSM 33937 • Pseudomonas aeruginosa DSM 33938 […] The cell suspension of the bacteria mixture was produced by growing the individual bacteria at 30° C. for 24 h in liquid culture on a shaker. The growth medium used for the bacteria was Müller-Hinton liquid medium. After growing, the individual liquid cultures were centrifuged, and the cells were resuspended in physiological saline solution. […] The cell count of the inoculum was determined in each case by chamber counting. […] The streaked agar plates were then incubated at 30° C. for 48 hours (bacteria) or at 25° C. for 72 hours (yeasts). After incubation, the bacterial or yeast colonies that have grown on the agar plates were visually evaluated and quantified according to the following scheme: [table]

[2] = system: Pseudomonas spec. DSM 115322; experiment: Minimum inhibitory concentrations and synergy index in Müller-Hinton broth
Method: (§2) Test organisms used were Gram-negative bacterial species from the group of pseudomonads, Pseudomonas putida DSM 115323 and Pseudomonas spec. DSM 115322. For this purpose, mixtures with different concentrations of the respective active substances were prepared and tested for their effect on the pseudomonads. The test was run in Müller-Hinton broth MHB with a cell density of 10^6 microbes per ml. When organic acids are used as a combination partner with the guanidine, MHB was adjusted to pH 5.5.
(§3) The incubation was run in microplates at 30° C. for 48 hours. After 48 hours, the batches were evaluated for turbidity resulting from growth, and optical density was additionally determined photometrically. In this way, the minimum inhibitory concentrations (MICs) of the two actives were determined individually and in combination.
(§4) The calculation was done according to the standard method of F. C. Kull et al., Applied Microbiology, vol. 9 (1961), p. 538.
(§5) This involves calculating the synergy index (SI) by the following formula:
(§6) [formula] • Qa=concentration of component A in the A+B mixture • QA=concentration of component A as the sole biocide • Qb=concentration of component B in the A+B mixture • QB=concentration of component B as the sole biocide
(§7) If the synergy index is greater than 1, this means that there is antagonism. If the synergy index assumes the value 1, this means that the effect of the two biocides/compounds is additive. If the synergy index assumes a value of less than 1, this means that there is synergism between the two biocides/compounds.

yeast mixture [3] = experiment: All-purpose detergent inoculated once with yeast mixture, semiquantitative growth evaluation; set-up: key: 0: No growth; Minimal growth, 1 to 10 colonies visible over the entire streak; 2: Light growth, maximum 100 colonies; Moderate growth, maximum 300 to 400 colonies; Uniform growth, >400 colonies, single colonies still clearly recognizable; 5: Heavy growth, too many colonies to count, but no growth over the entire streak; 6: Full growth, barely any single colonies still apparent, growth over the entire streak; details: Example 38, all-purpose detergent, +100 ppm BIT
Excerpt: as §1

[4] = system: Pseudomonas putida DSM 115323; experiment: Minimum inhibitory concentrations and synergy index in Müller-Hinton broth
Method: as §2, §3, §4, §5, §6, §7

bacteria mixture A = experiment: Emulsion paint inoculated three times with bacteria mixture A, live bacteria count CFU/g; details: for CFU/g after inoculation: emulsion paint, 7 d
Excerpt: In example 34, the synergistic interaction between guanidine and a zinc compound (zinc oxide) with respect to microbial infestation was examined in an emulsion paint by adding particular amounts of guanidine in the form of guanidine hydrochloride and a zinc compound in the form of zinc oxide, and tested for stability to microbial infestation. The paint tested was an emulsion paint based on styrene-acrylate binder (PVK 77%, pH 8.8) for indoor use, produced in the laboratory, without addition of the usual preservatives.
The samples were inoculated repeatedly, three times in total, with a bacterial cell suspension of the following composition (2% v/w).
• Alcaligenes faecalis NCIMB 13145 • Escherichia coli DSM 13631 • Burkholderia cepacia DSM 9241 • Staphylococcus aureus DSM 799 • Pseudomonas aeruginosa DSM 50071 • Pseudomonas putida DSM 13624
The cell suspension of the bacteria mixture A was produced by growing the individual bacteria at 30° C. for 24 h in liquid culture on a shaker. The growth medium used for the bacteria was Müller-Hinton liquid medium. After growing, the individual liquid cultures were centrifuged, and the cells were resuspended in physiological saline solution. In order to adjust the mixture to a total cell count of 10^9/ml, the individual bacteria suspensions, if necessary, were diluted accordingly before being combined with saline solution. The cell count of the inoculum was determined in each case by chamber counting.
After each inoculation and after incubation at 30° C. for 7 days, microbial infestation was evaluated in the samples by determining the live bacteria count per g of paint (colony-forming units, CFU/g). The CFU/g was determined each time by taking an aliquot (1 g) from the previously homogenized sample and running a serial decadic dilution series in physiological saline solution (0.9% NaCl) by streaking on tryptic soy agar, followed by incubation of the agar plates at 30° C. for 48 h.

`O=c1[nH]sc2ccccc12` [BIT, 1,2-benzisothiazolin-3-one] was tested, and the Bacterial growth (yeast mixture [1]; Day 1) was 6, the Bacterial growth (yeast mixture [1]; Day 3) was 4 (Uniform growth, >400 colonies, single colonies still clearly recognizable) and the Bacterial growth (bacteria mixture B; Day 1) was 6. For the same compound, the Bacterial growth (bacteria mixture B; Day 6) was 6, the “QB: Concentration of BIT as the sole agent that shows an endpoint” value ([2]; BIT alone, 48 hours at 30° C.) was 300 ppm and the “Synergy index Qa/QA + Qb/QB” value ([2]; guanidine and BIT) was 1.00. For the same compound, the Yeast growth (yeast mixture [3]; Day 1) was 6 and the Yeast growth (yeast mixture [3]; Day 3) was 4 (Uniform growth, >400 colonies, single colonies still clearly recognizable).
In the case of `Cn1sc(Cl)cc1=O` [CIT, 5-chloro-2-methyl-4-isothiazolin-3-one], the “QB: Concentration of CIT as the sole agent that shows an endpoint” value ([4]; CIT alone, 48 hours at 30° C.) is reported as 3.0 ppm and the “Synergy index Qa/QA + Qb/QB” value ([4]; guanidine and CIT, Qa, Qb) is reported as 1.00.
`[O]=[Zn]` [Zinc oxide, zinc oxide] was tested, and the CFU/g after inoculation (bacteria mixture A; Zinc oxide 125 ppm (100 ppm Zn), 1. inoculation) was 9.4 × 10^5 CFU/g, the CFU/g after inoculation (bacteria mixture A; Zinc oxide 125 ppm (100 ppm Zn), 2. inoculation) was >10^6 CFU/g and the CFU/g after inoculation (bacteria mixture A; Zinc oxide 125 ppm (100 ppm Zn), 3. inoculation) was >10^6 CFU/g. The CFU/g after inoculation (bacteria mixture A; Zinc oxide 250 ppm (201 ppm Zn), 1. inoculation) was 2.2 × 10^4 CFU/g, the CFU/g after inoculation (bacteria mixture A; Zinc oxide 250 ppm (201 ppm Zn), 2. inoculation) was >10^6 CFU/g and the CFU/g after inoculation (bacteria mixture A; Zinc oxide 250 ppm (201 ppm Zn), 3. inoculation) was >10^6 CFU/g. The CFU/g after inoculation (bacteria mixture A; Zinc oxide 500 ppm (402 ppm Zn), 1. inoculation) was 6.6 × 10^4 CFU/g, the CFU/g after inoculation (bacteria mixture A; Zinc oxide 500 ppm (402 ppm Zn), 2. inoculation) was >10^6 CFU/g and the CFU/g after inoculation (bacteria mixture A; Zinc oxide 500 ppm (402 ppm Zn), 3. inoculation) was >10^6 CFU/g. The CFU/g after inoculation (bacteria mixture A; Zinc oxide 1000 ppm (803 ppm Zn), 1. inoculation) was 9.9 × 10^3 CFU/g, the CFU/g after inoculation (bacteria mixture A; Zinc oxide 1000 ppm (803 ppm Zn), 2. inoculation) was >10^6 CFU/g and the CFU/g after inoculation (bacteria mixture A; Zinc oxide 1000 ppm (803 ppm Zn), 3. inoculation) was >10^6 CFU/g. For the same compound, the CFU/g after inoculation (bacteria mixture A; Zinc oxide 2500 ppm (2009 ppm Zn), 1. inoculation) was <100 CFU/g, the CFU/g after inoculation (bacteria mixture A; Zinc oxide 2500 ppm (2009 ppm Zn), 2. inoculation) was <100 CFU/g and the CFU/g after inoculation (bacteria mixture A; Zinc oxide 2500 ppm (2009 ppm Zn), 3. inoculation) was <100 CFU/g. For the same compound, the “Synergy index Qa/QA + Qb/QB” value (bacteria mixture A; guanidine and zinc in emulsion paint, Qa, Qb) was 1.00 and the “QB: Concentration of zinc as the sole agent that shows an endpoint” value (bacteria mixture A; zinc (added as zinc oxide) alone in emulsion paint, endpoint after 3 inoculations up to a maximum of 1000 CFU/g) was 2009 ppm.
For `OCCc1ccccc1` [phenethyl alcohol], the “Synergy index Qa/QA + Qb/QB” value ([2]; guanidine and phenethyl alcohol) was 1.00 and the “QB: Concentration of phenethyl alcohol as the sole agent that shows an endpoint” value ([2]; phenethyl alcohol alone, 48 hours at 30° C.) was 2500 ppm.
With `[O-][n+]1ccccc1S` [pyrithione] the “Synergy index Qa/QA + Qb/QB” value ([2]; guanidine and pyrithione) was 1.00 and the “QB: Concentration of pyrithione as the sole agent that shows an endpoint” value ([2]; pyrithione (added as sodium pyrithione) alone, 48 hours at 30° C.) was 127 ppm.
In the case of `O=C(O)c1ccccc1O` [salicylic acid], the “Synergy index Qa/QA + Qb/QB” value ([2]; guanidine and salicylic acid, pH 5.5) is reported as 1.00 and the “QB: Concentration of salicylic acid as the sole agent that shows an endpoint” value ([2]; salicylic acid (added as sodium salicyate) alone, MHB adjusted to pH 5.5, 48 hours at 30° C.) is reported as 1713 ppm.
`C/C=C/C=C/C(=O)O` [sorbic acid] was tested, and the “Synergy index Qa/QA + Qb/QB” value ([2]; guanidine and sorbic acid, pH 5.5) was 1.00 and the “QB: Concentration of sorbic acid as the sole agent that shows an endpoint” value ([2]; sorbic acid (added as potassium sorbate) alone, MHB adjusted to pH 5.5, 48 hours at 30° C.) was 1849 ppm.
